Here are results for four molecules from US20230277698A1, “SILICON-CONTAINING LIGAND COMPOUNDS” (Technische Universität München, priority 2020, published 2023).

Data set [1] relates to LNCaP tumor-bearing CB17-SCID mice. Briefly: Biodistribution studies 24 h p.i. The data set is classed as in vivo. The settings on record: 177Lu-labelled, mean±SD, n=4-5; for biodistribution: tumor: LNCaP xenograft; for biodistribution: blood: i.v. tail vein. Here is the method:
All animal experiments were conducted in accordance with general animal welfare regulations in Germany (German animal protection act, as amended on 18 May 2018, Art. 141 G v. 29.3.2017|626, approval no. 55.2-1-54-2532-71-13) and the institutional guidelines for the care and use of animals. To establish tumor xenografts, LNCaP cells (approx. 10^7 cells) were suspended in 200 μL of a 1:1 mixture (v/v) of DMEM F-12 and Matrigel (BD Biosciences, Germany), and inoculated subcutaneously onto the right shoulder of 6-8 weeks old CB17-SCID mice (Charles River, Sulzfeld, Germany). Mice were used for experiments when tumors had grown to a diameter of 5-10 mm (3-6 weeks after inoculation).
Approximately 5-10 MBq (0.1-0.2 nmol) of the radioactive-labelled PSMA inhibitors were injected into the tail vein of LNCaP tumor-bearing male CB-17 SCID mice and sacrificed after 24 h post injection. Selected organs were removed, weighted and measured in a γ-counter.
FIG. 10 and the following table show the biodistribution data 24 h p.i. of ^177Lu-labeled compounds in LNCaP tumor-bearing CB17-SCID mice. Data are expressed as mean±SD (n=4-5).

Data set [2] deals with T1, PSMA (Homo sapiens, UniProt Q04609).
T1 construct: PSMA-positive LNCAP cells (300265; Cell Lines Service, Eppelheim, Germany); host or cells: LNCaP cells
T1 sequence (Q04609 whole entry): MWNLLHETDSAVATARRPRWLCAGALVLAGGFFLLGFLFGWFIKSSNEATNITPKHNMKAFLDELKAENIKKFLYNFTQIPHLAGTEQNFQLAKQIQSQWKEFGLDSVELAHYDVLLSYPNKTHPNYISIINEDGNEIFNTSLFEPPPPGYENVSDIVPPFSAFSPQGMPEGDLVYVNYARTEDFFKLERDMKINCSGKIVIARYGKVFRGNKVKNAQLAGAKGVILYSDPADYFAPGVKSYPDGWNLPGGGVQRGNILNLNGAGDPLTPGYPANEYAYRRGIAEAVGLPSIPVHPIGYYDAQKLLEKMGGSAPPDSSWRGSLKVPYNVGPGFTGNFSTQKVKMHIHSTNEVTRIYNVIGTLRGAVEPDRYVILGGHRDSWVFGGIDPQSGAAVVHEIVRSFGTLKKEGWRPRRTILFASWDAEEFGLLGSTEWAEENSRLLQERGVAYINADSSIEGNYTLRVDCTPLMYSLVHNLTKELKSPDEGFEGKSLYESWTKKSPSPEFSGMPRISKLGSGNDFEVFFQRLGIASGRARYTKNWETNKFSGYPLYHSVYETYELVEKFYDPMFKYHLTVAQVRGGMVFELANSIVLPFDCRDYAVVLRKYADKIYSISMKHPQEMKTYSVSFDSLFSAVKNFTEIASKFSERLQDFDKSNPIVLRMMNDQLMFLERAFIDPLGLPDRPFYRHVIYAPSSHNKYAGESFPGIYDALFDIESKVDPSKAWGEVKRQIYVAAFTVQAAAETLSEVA
The data set is described as follows: PSMA affinity (IC50), competition with ([125I]I-BA)KuE on LNCaP cells. The settings on record: natLu complexes; LNCaP cells 150000 cells/well, ([125I]I-BA)KuE c=0.2 nM, 1 h, 4 °C, HBSS+1% BSA; mean±SD, n=3; read-out: IC50 (binding affinity to PSMA). Here is the method: (§1) PSMA-positive LNCAP cells (300265; Cell Lines Service, Eppelheim, Germany) were cultivated in Dulbecco modified Eagle medium/Nutrition Mixture F-12 with Glutamax (1:1) (DMEM-F12, Biochrom, Berlin, Germany) supplemented with fetal bovine serum (10%, FBS Zellkultur, Berlin, Germany) and kept at 37° C. in a humidified CO2 atmosphere (5%). A mixture of trypsin and EDTA (0.05%, 0.02%) in PBS (Biochrom) was used in order to harvest cells. Cells were counted with a Neubauer hemocytometer (Paul Marienfeld, Lauda-Königshofen, Germany).
In the case of metal-complexed ligands, the crude reaction mixture was diluted analogously, without further purification. Cells were harvested 24±2 hours prior to the experiment and seeded in 24-well plates (1.5×10^5 cells in 1 mL/well). After removal of the culture medium, the cells were carefully washed with 500 μL of HBSS, supplemented with 1% bovine serum albumin (BSA, Biowest, Nuaillé, France) and left 15 min on ice for equilibration in 200 μL HBSS (1% BSA). Next, 25 μL per well of solutions, containing either HBSS (1% BSA, control) or the respective ligand in increasing concentration ([…] in HBSS) were added with subsequent addition of 25 μL of [^125I]-BA-KuE (2.0 nM) in HBSS (1% BSA). After incubation on ice for 60 min, the experiment was terminated by removal of the medium and consecutive rinsing with 200 μL of HBSS (1% BSA). The media of both steps were combined in one fraction and represent the amount of free radioligand. Afterwards, the cells were lysed with 250 μL of 1 M aqueous NaOH for at least 10 min. After a washing step (250 μL of 1 M NaOH), both fractions, representing the amount of bound ligand, were united. Quantification of all collected fractions was accomplished in a γ-counter. PSMA-affinity determinations were carried out at least three times per ligand.
Affinities were determined using LNCaP cells (150000 cells/well) and ([^125I]I-BA)KuE (c=0.2 nM) as the radioligand (1 h, 4° C., HBSS+1% BSA). Data are expressed as mean±SD (n=3).

For data set [3], the system named is LNCaP cells. The data set is described as follows: Internalization studies on LNCaP cells. Type of data set: cell-based. Particulars: 177Lu-labelled, c=1.0 nM, 1 hour, 37 °C; % of reference ligand ([125I]I-BA)KuE (c=0.2 nM); corrected for non-specific binding (PMPA); mean±SD, n=3-6. As for the experimental part:
as §1
For internalization studies, LNCaP cells were harvested 24±2 hours before the experiment and seeded in poly-L-lysine coated 24-well plates (1.25×10^5 cells in 1 mL/well, Greiner Bio-One, Kremsmünster, Austria). After removal of the culture medium, the cells were washed once with 500 μL DMEM-F12 (5% BSA) and left to equilibrate for at least 15 min at 37° C. in 200 μL DMEM-F12 (5% BSA). Each well was treated with either 25 μL of either DMEM-F12 (5% BSA, control) or 25 μL of a 100 μM PMPA (2-(Phosphonomethyl)-pentandioic acid, Tocris Bioscience, Bristol, UK) solution in PBS, for blockade. Next, 25 μL of the radioactive-labelled PSMA inhibitor (10.0 nM in PBS) was added and the cells were incubated at 37° C. for 60 min. The experiment was terminated by placing the 24-well plate on ice for 3 min and consecutive removal of the medium. Each well was carefully washed with 250 μL of ice-cold HBSS. Both fractions from the first steps, representing the amount of free radioligand, were combined. Removal of surface bound activity was accomplished by incubation of the cells with 250 μL of ice-cold PMPA (10 μM in PBS) solution for 5 min and rinsed again with another 250 μL of ice-cold PBS. The internalized activity was determined by incubation of the cells in 250 μL 1 M aqueous NaOH for at least 10 min. The obtained fractions were combined with those of the subsequent wash step with 250 μL 1 M aqueous NaOH. Each experiment (control and blockade) was performed in triplicate. Free, surface bound and internalized activity was quantified in a γ-counter. All internalization studies were accompanied by external reference studies, using ([^125I]l-BA)KuE (c=0.2 nM), which were performed analogously. Data were corrected for non-specific binding and normalized to the specific-internalization observed for the radioiodinated reference compound.
Data is corrected for non-specific binding (10 μmol PMPA) and expressed as mean±SD (n=3-6): […]

The IC50 is the midpoint of a concentration-inhibition curve.

`CC(C)(C)[Si](O)(c1ccc(C(=O)N[C@H](CCC(=O)NC[C@@H](NC(=O)CC[C@@H](C(=O)O)N2CCN(CC(=O)O)CCN(CC(=O)O)CCN(CC(=O)O)CC2)C(=O)NCCCCCC(=O)NCCC[C@@H](NC(=O)CC[C@H](NC(=O)N[C@@H](CCC(=O)O)C(=O)O)C(=O)O)C(=O)O)C(=O)O)cc1)C(C)(C)C` [P105-SiOH]: in data set [1], the “biodistribution: tumor” value came out at 6.3 ± 2.1 % ID/g, the “biodistribution: blood” value was 0.004 ± 0.003 % ID/g, the “biodistribution: adrenals” value is given as 0.12 ± 0.01 % ID/g and the “biodistribution: bone” value is 0.02 ± 0.01 % ID/g. For the same molecule, in data set [1], the “biodistribution: heart” value was found to be 0.01 ± 0.01 % ID/g, the “biodistribution: intestine” value stood at 0.08 ± 0.05 % ID/g, the “biodistribution: kidneys” value stood at 4.2 ± 2.5 % ID/g and the “biodistribution: liver” value was found to be 0.37 ± 0.07 % ID/g. Moreover, in data set [1], the “biodistribution: lung” value is reported as 0.04 ± 0.01 % ID/g, the “biodistribution: muscle” value is 0.004 ± 0.001 % ID/g, the “biodistribution: pancreas” value stood at 0.01 ± 0.01 % ID/g and the “biodistribution: parotis” value is recorded as 0.07 ± 0.03 % ID/g. Further, in data set [1], the “biodistribution: spleen” value was found to be 0.31 ± 0.10 % ID/g, the “biodistribution: stomach” value was found to be 0.02 ± 0.01 % ID/g and the “biodistribution: submandibularis” value was determined as 0.03 ± 0.01 % ID/g. The half-inhibitory concentration (IC50) in data set [2] turned out to be 9.8 ± 0.4 nM. Besides, the “Internalization (% IBA)” value in data set [3] worked out at 185 ± 4 % IBA.
With `O=C(O)CC[C@H](NC(=O)N[C@@H](CCCCNC(=O)[C@H](Cc1ccc2ccccc2c1)NC(=O)[C@H]1CC[C@H](CNC(=O)CN2CCN(CC(=O)O)CCN(CC(=O)O)CCN(CC(=O)O)CC2)CC1)C(=O)O)C(=O)O` [PSMA-617, reference compound], in data set [1], the “biodistribution: tumor” value is reported as 7.5 ± 0.9 % ID/g, the “biodistribution: blood” value is 0.006 ± 0.01 % ID/g, the “biodistribution: adrenals” value is reported as 0.13 ± 0.12 % ID/g and the “biodistribution: bone” value turned out to be 0.03 ± 0.01 % ID/g. Besides, in data set [1], the “biodistribution: heart” value worked out at 0.01 ± 0.01 % ID/g, the “biodistribution: intestine” value was determined as 0.12 ± 0.08 % ID/g, the “biodistribution: kidneys” value stood at 1.4 ± 0.4 % ID/g and the “biodistribution: liver” value was found to be 0.12 ± 0.06 % ID/g. Moreover, in data set [1], the “biodistribution: lung” value was 0.04 ± 0.01 % ID/g, the “biodistribution: muscle” value stood at 0.01 ± 0.01 % ID/g, the “biodistribution: pancreas” value was found to be 0.01 ± 0.01 % ID/g and the “biodistribution: spleen” value was found to be 0.08 ± 0.01 % ID/g. Further, in data set [1], the “biodistribution: stomach” value is 0.02 ± 0.01 % ID/g. Also, in data set [2], the IC50 came out at 3.8 ± 1.7 nM. Also, the “Internalization (% IBA)” value in data set [3] amounted to 160 ± 2 % IBA.
For `CC(C)(C)[Si](F)(c1ccc(C(=O)NC[C@@H](NC(=O)CC[C@@H](C(=O)O)N2CCN(CC(=O)O)CCN(CC(=O)O)CCN(CC(=O)O)CC2)C(=O)N[C@H](CCCCNC(=O)CCC(=O)NCCC[C@@H](NC(=O)CC[C@H](NC(=O)N[C@@H](CCC(=O)O)C(=O)O)C(=O)O)C(=O)O)C(=O)O)cc1)C(C)(C)C` [rhPSMA-7.3, reference compound], in data set [1], the “biodistribution: tumor” value worked out at 7.6 ± 0.5 % ID/g, the “biodistribution: blood” value is 0.004 ± 0.002 % ID/g, the “biodistribution: bone” value is listed as 0.02 ± 0.01 % ID/g and the “biodistribution: heart” value worked out at 0.03 ± 0.01 % ID/g. For the same molecule, in data set [1], the “biodistribution: intestine” value came to 0.12 ± 0.03 % ID/g, the “biodistribution: kidneys” value worked out at 13.2 ± 6.7 % ID/g, the “biodistribution: liver” value came out at 0.22 ± 0.03 % ID/g and the “biodistribution: lung” value was found to be 0.06 ± 0.02 % ID/g. In data set [1], the “biodistribution: muscle” value was determined as 0.012 ± 0.004 % ID/g, the “biodistribution: pancreas” value was determined as 0.02 ± 0.01 % ID/g, the “biodistribution: parotis” value is reported as 0.22 ± 0.16 % ID/g and the “biodistribution: spleen” value was found to be 0.51 ± 0.22 % ID/g. In addition, in data set [1], the “biodistribution: stomach” value is reported as 0.05 ± 0.01 % ID/g and the “biodistribution: submandibularis” value was 0.05 ± 0.02 % ID/g. Moreover, the IC50 in data set [2] amounted to 8 ± 1.6 nM. The “Internalization (% IBA)” value in data set [3] is given as 162 ± 14 % IBA.
Take `CC(C)(C)[Si](F)(c1ccc(C(=O)NC[C@@H](NC(=O)CN2CCN(CC(=O)O)CCN(CC(=O)O)CCN(CC(=O)O)CC2)C(=O)N[C@H](CCCCNC(=O)CCC(=O)NCCC[C@@H](NC(=O)CC[C@H](NC(=O)N[C@@H](CCC(=O)O)C(=O)O)C(=O)O)C(=O)O)C(=O)O)cc1)C(C)(C)C` [rhPSMA-10, reference compound]: in data set [1], the “biodistribution: tumor” value is given as 10.2 ± 2.8 % ID/g, the “biodistribution: blood” value was 0.004 ± 0.001 % ID/g, the “biodistribution: adrenals” value worked out at 0.09 ± 0.06 % ID/g and the “biodistribution: bone” value stood at 0.02 ± 0.01 % ID/g. Moreover, in data set [1], the “biodistribution: heart” value came to 0.03 ± 0.01 % ID/g, the “biodistribution: intestine” value is 0.11 ± 0.06 % ID/g, the “biodistribution: kidneys” value was found to be 4.1 ± 2.3 % ID/g and the “biodistribution: liver” value worked out at 0.28 ± 0.13 % ID/g. For the same molecule, in data set [1], the “biodistribution: lung” value is given as 0.05 ± 0.01 % ID/g, the “biodistribution: muscle” value is recorded as 0.010 ± 0.003 % ID/g, the “biodistribution: pancreas” value came to 0.02 ± 0.01 % ID/g and the “biodistribution: spleen” value was found to be 0.22 ± 0.11 % ID/g. Besides, the “biodistribution: stomach” value in data set [1] came out at 0.04 ± 0.01 % ID/g. For the same molecule, the IC50 in data set [2] came out at 2.8 ± 0.7 nM. In data set [3], the “Internalization (% IBA)” value was 231 ± 57 % IBA.
